In publication PMC9424906 (Frontiers in Pharmacology, 2022):

Experiments:
[1] = system: SARS-CoV-2 (USA_WA1/2020); experiment: SARS-CoV-2 cytopathic effect (CPE) assay in Vero E6 cells; type: cell-based; details: Severe acute respiratory syndrome coronavirus 2, Vero C1008; Vero E6 cells, MOI 0.002, 72 h, n = 2; read-out: EC50, inhibition of SARS-CoV-2 CPE
[2] = Liver microsomal stability, SD rat; type: in vitro ADME; details: Sprague-Dawley, liver microsomes, pH 7.4, 0.5 mg/mL
Procedure: Samples were analyzed using UPLC-MS/MS.

[3] = in vitro; type: in vitro ADME; details: both sexes, human, plasma
Procedure: Plasma protein binding experiments were carried out in mixed-gender human plasma, male Sprague-Dawley rat plasma, male CD-1 plasma, male Beagle dog plasma, and male Cynomolgus monkey plasma (BioIVT) using a Pierce Rapid Equilibration Dialysis (RED) device. […] Blank phosphate-buffered saline (PBS) (500 μL) was added to each corresponding receiver chamber. After 4 h of incubation (with shaking at 37°C), both sides were aliquoted, and matrix was normalized. Samples were centrifuged at 1000 g for 10 min after adding two volumes of ACN with IS. Supernatants were diluted 1:1 with water and analyzed with LC-MS/MS.
Plasma Protein binding was calculated as follows:
% Bound = [(PARR in Donor–PARR in Receiver)/(PARR in Donor)] × 100.
PARR = peak area response ratio to internal standard, including applicable dilution factors.

[4] = Pharmacokinetics in Sprague Dawley rats; type: in vivo; details: male, rat; for Vd / clearance / AUC(0-inf) / Cmax / Tmax / bioavailability: in vivo; for Vd / clearance: iv; for AUC(0-inf) / Cmax / Tmax / bioavailability / half-life: po; for half-life: plasma, Rat
Procedure: (§1) Adult male C57BL/6 mice and Sprague Dawley rats were purchased from Charles River Laboratory (Wilmington, MA). PK studies for mice and rats were conducted at NIH animal facility (Bethesda, MD). In-life dog and monkey PK studies were conducted at Absorption System (San Diego, CA) and Frontage Labs (Concord, OH), respectively. Dogs and monkeys were fasted overnight prior to dose administrations. All experimental procedures were reviewed and approved by the Animal Care and Use Committee (ACUC) of the NIH Division of Veterinary Resources (DVR) or CRO labs for in-life studies.
Male Sprague–Dawley rats (n = 3 or 4 per treatment group, ∼ 343–375 g) were dosed in IV and PO dosing groups: 1 and 5 mg/kg IV, and 10, 30 and 100 mg/kg PO, respectively. Double cannulated rats (one catheter for IV dosing and another one for sampling) were used. Plasma samples were collected from jugular vein over 24 h. In bile duct cannulated (BDC) rat group, a single IV dose of 2 mg/kg was administered to three rats. Rat urine and bile samples were collected for the pre-dose, 0–4 h, 4–8 h, and 8–24 h time periods for BDC rats.
(§2) Blood samples from all groups and species were collected in K2EDTA tubes and stored on wet ice pending processing. Blood was centrifuged at 2200 g at 4°C for 10 min to isolate plasma. All samples were stored at -80°C until analysis.
(§3) Phoenix WinNonlin, version 8.1 (Certara, St. Louis, MO), was used to perform PK analysis with the non-compartmental approach (Models 200 and 201 for PO and IV datasets). The area under the plasma concentration vs. time curve (AUC) was calculated using the linear trapezoidal method. The terminal rate constant (λ) was obtained from the slope of at least three data points of the apparent terminal phase of the log-linear plasma concentration vs. time curve when available. AUC0–∞ was estimated as the sum of the AUC0–t (where t is the time of the last measurable concentration) and Ct/λ. The apparent terminal half-life (t½) was calculated as 0.693/λ. Bioavailability (F) was calculated using ratios of dose normalized AUC (AUC/Dose) obtained from PO and IV PK studies.

[5] = Pharmacokinetics in Beagle dogs; type: in vivo, dog; details: for half-life: plasma
Procedure: as §1
The dosing volume was 1.0 mL/kg for both groups. Plasma (both IV and PO groups) and urine (IV group) samples were collected over a period of 48 h.
as §2, §3

[6] = system: MDR1; details: MDCK-MDR1
[7] = in vitro; details: human, Caco-2, pH 7.4
[8] = system: BCRP; experiment: in vitro; details: human, Caco-2, pH 7.4
[9] = system: MDR1; experiment: in vitro; details: human, Caco-2, pH 7.4
[10] = system: OATP1B1; details: cited from earlier work
[11] = system: OATP1B3; details: cited from earlier work
[12] = system: MATE1; details: cited from earlier work
[13] = system: MATE2-K; details: cited from earlier work
[14] = 7-days dose range finding study in dogs; details: oral, 2000 mg/kg/day
[15] = male, beagle, dog, in vivo, iv, 2 mg/kg
[16] = male, beagle, dog, in vivo, po, 5 mg/kg

Compound: N#C[C@@]1(c2ccc3c(N)ncnn23)O[C@H](CO)[C@@H](O)[C@H]1O [GS-441524]
- EC50 [1]: 1.86 µM
- half-life at 1 µM [2]: 1.02 ± 0.15 h
- fraction unbound at 4 h, 10 µM [3]: ~0.78
- Vd ([4]; 1 mg/kg): 2.6 L/kg
- clearance ([4]; 1 mg/kg): 31 mL/min/kg
- Vd ([4]; 5 mg/kg): 2.2 ± 0.3 L/kg
- clearance ([4]; 5 mg/kg): 25 ± 1.6 mL/min/kg
- AUC(0-inf) ([4]; 10 mg/kg): 2170 ng·h/mL
- Cmax ([4]; 10 mg/kg): 193 ± 57 ng/mL
- Tmax ([4]; 10 mg/kg): 3.8 ± 2.4 h
- bioavailability ([4]; 10 mg/kg): 33 ± 9.8%
- AUC(0-inf) ([4]; 30 mg/kg): 4220 ng·h/mL
- Cmax ([4]; 30 mg/kg): 326 ± 77 ng/mL
- Tmax ([4]; 30 mg/kg): 3.8 ± 2.4 h
- bioavailability ([4]; 30 mg/kg): 21 ± 3.8%
- AUC(0-inf) ([4]; 100 mg/kg): 9560 ng·h/mL
- Cmax ([4]; 100 mg/kg): 825 ± 91 ng/mL
- Tmax ([4]; 100 mg/kg): 2.3 ± 1.3 h
- bioavailability ([4]; 100 mg/kg): 15 ± 3.2%
- half-life ([4]; 10 mg/kg, PO 10 mg/kg, read-out: t1/2 (converted)): 3.4 ± 0.2 h
- half-life ([4]; 30 mg/kg, PO 30 mg/kg, read-out: t1/2 (converted)): 3.4 ± 0.2 h
- half-life ([4]; 100 mg/kg, PO 100 mg/kg, read-out: t1/2 (converted)): 4.2 ± 1.8 h
- half-life ([4]; 100 mg/kg, PO 10, 30 and 100 mg/kg, read-out: Half-life (t1/2)): 3.4 to 4.2 h
- t1/2 ([5]; Dog, PO 5 mg/kg, 5 mg/kg): 4.1 ± 1.1 h
- Vd ([5]; male, Beagle, dog, in vivo, iv, 2 mg/kg, Vdss): 0.9 L/kg
- half-life ([5]; male, Beagle, dog, iv, 2 mg/kg, IV 2 mg/kg): ~4 h
- half-life ([5]; male, Beagle, dog, po, 5 mg/kg, PO 5 mg/kg): ~4 h
- Mean urinary excretion of unchanged parent drug [5, 15]: ~64%
- clearance [5, 15]: 4.1 ± 0.7 mL/min/kg
- Cmax [5, 16]: 6010 ng/mL
- Tmax [5, 16]: 0.28 ± 0.19 h
- bioavailability [5, 16]: 85 ± 17%
- AUC(0-inf) ([5]; male, beagle, in vivo, Dog, PO 5 mg/kg): 19000 ng·h/mL
- Substrate of MDR1 [6]: substrate
- Papp A→B at 2 h, 5 µM [7]: 0.099 ×10⁻⁶ cm/s
- Papp B→A at 2 h, 5 µM [7]: 0.971 ×10⁻⁶ cm/s
- Papp A→B at 2 h, 5 µM [8]: 0.229 ×10⁻⁶ cm/s
- Papp B→A at 2 h, 5 µM [8]: 0.267 ×10⁻⁶ cm/s
- Papp A→B at 2 h, 5 µM [9]: 0.16 ×10⁻⁶ cm/s
- Papp B→A at 2 h, 5 µM [9]: 0.79 ×10⁻⁶ cm/s
- Substrate of OATP1B1 [10]: not a substrate
- Substrate of OATP1B3 [11]: not a substrate
- Substrate of MATE1 [12]: not a substrate
- Substrate of MATE2-K [13]: not a substrate
- Tolerability at maximum feasible dose [14]: well tolerated
